Data from paper PMC9611727, “Optimization of a Novel Mandelamide-Derived Pyrrolopyrimidine Series of PERK Inhibitors” (Pharmaceutics, 2022).
pIC50: −log10 of the molar value. Where two headings read alike, the source gives them in different places. One block for each compound: values may come before it.

Experiments:
CSF1R = target: T1, CSF1R (Homo sapiens, UniProt P07333); assay: scanMAX kinase panel; assay type: binding; details: read-out: % Control; for remaining binding at 1 µM: 1000 nM
T1 construct: purchased DiscoverX scanMAX
Description: (§1) Supplemental Table S2. scanMAXSM Kinome Assay Results. Complete tabulated data of all 468 kinases from the panel, including
(§2) 403 wild-type and 65 mutant isoforms. […] Cmpd 11 and Cmpd 24

TRKC = target: T2, TRKC (Homo sapiens, UniProt Q16288); assay: scanMAX kinase panel; assay type: binding; details: read-out: % Control; for remaining binding at 1 µM: 1000 nM
T2 construct: purchased DiscoverX (scanMAX panel)
Description: as §1, §2

TRKA = target: T3, TRKA (Homo sapiens, UniProt P04629); assay: scanMAX kinase panel; assay type: binding; details: read-out: % Control; for remaining binding at 1 µM: 1000 nM
T3 construct: purchased DiscoverX (scanMAX panel)
Description: as §1, §2

PIK3CA(E542K) = target: T4, PIK3CA(E542K) (Homo sapiens, UniProt P42336, E542K); assay: scanMAX kinase panel; assay type: binding; details: read-out: % Control; for remaining binding at 1 µM: 1000 nM
T4 construct: purchased DiscoverX scanMAX
Description: as §1, §2

YANK1 = target: T5, YANK1 (Homo sapiens, UniProt Q8WU08); assay: scanMAX kinase panel; assay type: binding; details: read-out: % Control; for remaining binding at 1 µM: 1000 nM
T5 construct: purchased DiscoverX (scanMAX panel)
Description: as §1, §2

FLT3(K663Q) = target: T6, FLT3(K663Q) (Homo sapiens, UniProt P36888, K663Q); assay: scanMAX kinase panel; assay type: binding; details: read-out: % Control; for remaining binding at 1 µM: 1000 nM
T6 construct: purchased DiscoverX scanMAX
T6 sequence (P36888 27-993 K663Q): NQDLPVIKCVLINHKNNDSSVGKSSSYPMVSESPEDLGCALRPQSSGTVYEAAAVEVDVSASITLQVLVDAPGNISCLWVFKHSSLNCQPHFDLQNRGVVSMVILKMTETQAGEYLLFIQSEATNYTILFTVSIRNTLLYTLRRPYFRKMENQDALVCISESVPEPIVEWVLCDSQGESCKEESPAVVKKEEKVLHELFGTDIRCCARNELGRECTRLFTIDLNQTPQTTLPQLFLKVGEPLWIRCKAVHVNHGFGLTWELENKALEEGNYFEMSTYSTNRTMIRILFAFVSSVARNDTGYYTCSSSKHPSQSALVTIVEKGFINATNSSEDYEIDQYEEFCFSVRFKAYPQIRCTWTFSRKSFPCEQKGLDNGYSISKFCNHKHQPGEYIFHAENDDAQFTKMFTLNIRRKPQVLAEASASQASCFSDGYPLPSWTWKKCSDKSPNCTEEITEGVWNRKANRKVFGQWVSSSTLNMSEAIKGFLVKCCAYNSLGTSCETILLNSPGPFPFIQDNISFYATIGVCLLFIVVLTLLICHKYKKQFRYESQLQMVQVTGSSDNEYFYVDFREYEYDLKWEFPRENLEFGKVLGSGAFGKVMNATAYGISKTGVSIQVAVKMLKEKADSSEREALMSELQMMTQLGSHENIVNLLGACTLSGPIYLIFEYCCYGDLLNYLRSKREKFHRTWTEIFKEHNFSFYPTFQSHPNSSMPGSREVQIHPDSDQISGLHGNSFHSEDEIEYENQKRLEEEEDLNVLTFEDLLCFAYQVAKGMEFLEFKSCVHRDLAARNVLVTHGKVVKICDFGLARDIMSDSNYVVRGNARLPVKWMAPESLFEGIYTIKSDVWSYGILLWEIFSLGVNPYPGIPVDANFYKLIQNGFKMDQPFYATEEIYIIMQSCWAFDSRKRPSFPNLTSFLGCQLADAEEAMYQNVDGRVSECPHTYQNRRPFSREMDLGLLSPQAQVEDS
Description: as §1, §2

PERK = target: T7, PERK (Homo sapiens, UniProt Q9NZJ5); assay: PERK biochemical LanthaScreen TR-FRET assay (GFP-eIF2a phosphorylation)
T7 sequence (Q9NZJ5 30-1116): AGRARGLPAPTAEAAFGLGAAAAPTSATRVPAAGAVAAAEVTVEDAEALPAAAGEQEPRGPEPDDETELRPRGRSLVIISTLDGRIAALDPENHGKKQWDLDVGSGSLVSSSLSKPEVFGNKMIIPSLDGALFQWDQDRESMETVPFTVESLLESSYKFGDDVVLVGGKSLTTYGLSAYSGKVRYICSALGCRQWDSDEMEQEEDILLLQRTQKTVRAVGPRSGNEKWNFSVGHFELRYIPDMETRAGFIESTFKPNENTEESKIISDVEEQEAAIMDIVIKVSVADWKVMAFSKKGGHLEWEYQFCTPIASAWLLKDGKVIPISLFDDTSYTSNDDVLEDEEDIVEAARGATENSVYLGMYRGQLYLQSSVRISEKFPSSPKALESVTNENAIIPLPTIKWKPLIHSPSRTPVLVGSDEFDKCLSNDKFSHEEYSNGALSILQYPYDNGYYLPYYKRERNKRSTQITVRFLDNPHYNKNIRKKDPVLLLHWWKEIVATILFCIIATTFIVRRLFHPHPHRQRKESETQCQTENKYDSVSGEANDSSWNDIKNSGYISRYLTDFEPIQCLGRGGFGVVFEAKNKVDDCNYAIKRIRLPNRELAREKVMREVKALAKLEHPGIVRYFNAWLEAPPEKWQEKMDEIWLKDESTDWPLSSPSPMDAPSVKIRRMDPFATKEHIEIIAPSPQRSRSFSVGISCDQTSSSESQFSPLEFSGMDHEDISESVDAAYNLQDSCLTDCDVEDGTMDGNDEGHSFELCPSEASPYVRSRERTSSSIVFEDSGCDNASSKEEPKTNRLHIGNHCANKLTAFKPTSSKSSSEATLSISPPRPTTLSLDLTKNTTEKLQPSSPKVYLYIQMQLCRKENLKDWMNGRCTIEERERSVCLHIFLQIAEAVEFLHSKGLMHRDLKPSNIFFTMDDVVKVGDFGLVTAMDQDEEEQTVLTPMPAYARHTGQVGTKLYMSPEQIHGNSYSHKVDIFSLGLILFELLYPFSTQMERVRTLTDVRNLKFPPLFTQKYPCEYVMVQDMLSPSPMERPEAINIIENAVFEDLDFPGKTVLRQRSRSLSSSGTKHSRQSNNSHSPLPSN
Description: Methods used to evaluate biochemical PERK activity are described and published elsewhere. In brief, biochemical PERK activity is evaluated using a LanthaScreenTM ([…]) TR-FRET assay to detect phosphorylation of a GFP-tagged eIF2a substrate (ThermoFisher). Excitation at […] of a terbium chelate donor fluorophore in an eIF2a antibody results in energy transfer to GFP acceptor fluorophore upon eIF2a phosphorylation by PERK. Reaction buffer was composed of 50 mM HEPES (pH 7.4), 10 mM MgCl2, 1 mM EGTA and 0.01% (v/v) BrijTM-35. Reactions were initiated by the addition of substrate and ATP, followed by incubation for 1 h at RT prior to addition of EDTA and the anti-peIF2a antibody. FRET was measured by an EnVision Plate Reader (PerkinElmer). Data were plotted as percent inhibition along a 10-point 3-fold dilution series of inhibitors. IC50 values were calculated using 4-parameter logistical fitting in XLFit.
The PERK activity of analog I was evaluated using cell-free biochemical assays. In these assays, PERK phosphorylation of eIF2a was assessed using a FRET-based labelled protein assay. Compounds were then evaluated for cellular activity by quantifying inhibition of eIF2a phosphorylation in HEK293 cells treated with the ER inducer tunicamycin [7].

[1] = cell-free TR-FRET, GFP-eIF2a substrate, read-out: PERK IC50

T3 sequence (P04629 33-796): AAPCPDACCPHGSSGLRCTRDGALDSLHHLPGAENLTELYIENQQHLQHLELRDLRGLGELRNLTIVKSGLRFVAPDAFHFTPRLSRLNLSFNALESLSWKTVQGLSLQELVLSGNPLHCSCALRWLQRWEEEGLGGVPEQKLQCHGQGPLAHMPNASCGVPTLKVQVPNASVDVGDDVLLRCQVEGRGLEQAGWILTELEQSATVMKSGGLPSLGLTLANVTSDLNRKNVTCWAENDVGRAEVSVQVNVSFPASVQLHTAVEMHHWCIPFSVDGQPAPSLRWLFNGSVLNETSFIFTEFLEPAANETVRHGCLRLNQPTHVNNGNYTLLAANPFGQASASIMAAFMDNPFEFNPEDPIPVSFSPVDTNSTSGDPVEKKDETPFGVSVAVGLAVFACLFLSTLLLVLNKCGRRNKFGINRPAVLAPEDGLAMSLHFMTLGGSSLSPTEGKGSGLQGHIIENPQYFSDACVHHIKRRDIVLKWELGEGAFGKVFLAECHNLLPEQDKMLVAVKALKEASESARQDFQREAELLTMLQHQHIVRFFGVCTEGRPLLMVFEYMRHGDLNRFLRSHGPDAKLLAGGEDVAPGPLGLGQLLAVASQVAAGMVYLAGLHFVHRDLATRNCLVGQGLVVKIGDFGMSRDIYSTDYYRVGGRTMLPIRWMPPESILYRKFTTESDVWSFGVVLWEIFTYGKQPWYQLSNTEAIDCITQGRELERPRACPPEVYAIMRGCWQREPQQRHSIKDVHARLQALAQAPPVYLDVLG
T5 sequence (Q8WU08 whole entry): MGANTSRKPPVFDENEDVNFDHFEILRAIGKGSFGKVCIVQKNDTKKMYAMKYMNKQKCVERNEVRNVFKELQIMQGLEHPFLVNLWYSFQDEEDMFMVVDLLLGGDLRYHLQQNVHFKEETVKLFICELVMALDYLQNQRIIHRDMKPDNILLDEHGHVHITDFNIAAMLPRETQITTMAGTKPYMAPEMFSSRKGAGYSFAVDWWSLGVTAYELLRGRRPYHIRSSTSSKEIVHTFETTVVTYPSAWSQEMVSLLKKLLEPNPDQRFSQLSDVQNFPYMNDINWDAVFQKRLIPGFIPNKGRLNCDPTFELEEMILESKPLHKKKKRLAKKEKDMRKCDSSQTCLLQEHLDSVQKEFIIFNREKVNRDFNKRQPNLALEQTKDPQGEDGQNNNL
T1 sequence (P07333 20-972): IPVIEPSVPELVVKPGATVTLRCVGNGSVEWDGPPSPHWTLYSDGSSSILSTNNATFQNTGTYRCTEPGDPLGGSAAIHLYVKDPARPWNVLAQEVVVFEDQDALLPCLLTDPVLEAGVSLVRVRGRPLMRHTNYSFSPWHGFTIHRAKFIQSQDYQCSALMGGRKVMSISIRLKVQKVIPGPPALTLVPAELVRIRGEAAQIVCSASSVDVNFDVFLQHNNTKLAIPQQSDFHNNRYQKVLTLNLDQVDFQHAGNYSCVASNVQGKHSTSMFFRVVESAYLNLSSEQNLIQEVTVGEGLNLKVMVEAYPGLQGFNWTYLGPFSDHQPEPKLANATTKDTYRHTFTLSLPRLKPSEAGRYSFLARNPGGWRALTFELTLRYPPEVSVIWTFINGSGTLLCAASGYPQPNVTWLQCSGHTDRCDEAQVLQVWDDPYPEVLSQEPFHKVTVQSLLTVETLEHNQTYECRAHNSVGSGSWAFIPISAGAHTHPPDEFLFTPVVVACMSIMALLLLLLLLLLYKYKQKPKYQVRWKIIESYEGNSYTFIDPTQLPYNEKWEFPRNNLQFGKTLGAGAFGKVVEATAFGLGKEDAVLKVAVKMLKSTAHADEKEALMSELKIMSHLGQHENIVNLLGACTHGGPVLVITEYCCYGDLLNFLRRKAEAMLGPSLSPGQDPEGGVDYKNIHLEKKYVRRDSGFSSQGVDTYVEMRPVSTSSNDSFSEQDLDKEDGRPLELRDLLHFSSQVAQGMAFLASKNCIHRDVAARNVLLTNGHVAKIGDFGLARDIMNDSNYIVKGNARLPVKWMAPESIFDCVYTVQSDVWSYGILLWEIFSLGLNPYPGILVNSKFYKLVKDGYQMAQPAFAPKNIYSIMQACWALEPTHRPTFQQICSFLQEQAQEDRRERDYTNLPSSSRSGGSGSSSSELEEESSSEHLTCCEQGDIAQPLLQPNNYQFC
T4 sequence (P42336 whole entry E542K): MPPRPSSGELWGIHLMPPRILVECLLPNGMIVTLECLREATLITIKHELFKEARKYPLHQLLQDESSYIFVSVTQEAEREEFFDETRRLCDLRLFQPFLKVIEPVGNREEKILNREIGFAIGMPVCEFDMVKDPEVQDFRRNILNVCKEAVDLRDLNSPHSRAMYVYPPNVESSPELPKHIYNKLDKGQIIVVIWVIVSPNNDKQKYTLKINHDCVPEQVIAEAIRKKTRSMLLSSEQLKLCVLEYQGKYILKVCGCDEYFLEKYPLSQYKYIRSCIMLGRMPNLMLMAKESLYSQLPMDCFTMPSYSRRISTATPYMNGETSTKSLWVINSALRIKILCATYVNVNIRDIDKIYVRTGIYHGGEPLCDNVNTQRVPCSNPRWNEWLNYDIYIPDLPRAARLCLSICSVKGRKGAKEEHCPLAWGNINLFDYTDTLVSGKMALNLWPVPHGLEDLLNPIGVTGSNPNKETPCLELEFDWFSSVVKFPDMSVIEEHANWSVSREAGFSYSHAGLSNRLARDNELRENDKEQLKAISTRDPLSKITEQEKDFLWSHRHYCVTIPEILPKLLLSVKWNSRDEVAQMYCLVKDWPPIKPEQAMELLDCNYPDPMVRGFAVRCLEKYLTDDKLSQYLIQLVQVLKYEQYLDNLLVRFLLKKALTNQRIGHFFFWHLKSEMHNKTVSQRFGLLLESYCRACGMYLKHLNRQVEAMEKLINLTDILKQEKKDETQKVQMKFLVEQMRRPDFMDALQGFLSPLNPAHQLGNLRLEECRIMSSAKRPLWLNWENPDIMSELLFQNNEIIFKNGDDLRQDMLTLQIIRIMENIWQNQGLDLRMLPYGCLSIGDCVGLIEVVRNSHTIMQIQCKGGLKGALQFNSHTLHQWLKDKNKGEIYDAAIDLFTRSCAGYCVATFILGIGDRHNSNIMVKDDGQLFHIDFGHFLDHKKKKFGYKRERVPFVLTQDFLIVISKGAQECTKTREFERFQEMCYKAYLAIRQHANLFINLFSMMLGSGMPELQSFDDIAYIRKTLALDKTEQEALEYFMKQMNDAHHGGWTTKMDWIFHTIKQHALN
T2 sequence (Q16288 32-839): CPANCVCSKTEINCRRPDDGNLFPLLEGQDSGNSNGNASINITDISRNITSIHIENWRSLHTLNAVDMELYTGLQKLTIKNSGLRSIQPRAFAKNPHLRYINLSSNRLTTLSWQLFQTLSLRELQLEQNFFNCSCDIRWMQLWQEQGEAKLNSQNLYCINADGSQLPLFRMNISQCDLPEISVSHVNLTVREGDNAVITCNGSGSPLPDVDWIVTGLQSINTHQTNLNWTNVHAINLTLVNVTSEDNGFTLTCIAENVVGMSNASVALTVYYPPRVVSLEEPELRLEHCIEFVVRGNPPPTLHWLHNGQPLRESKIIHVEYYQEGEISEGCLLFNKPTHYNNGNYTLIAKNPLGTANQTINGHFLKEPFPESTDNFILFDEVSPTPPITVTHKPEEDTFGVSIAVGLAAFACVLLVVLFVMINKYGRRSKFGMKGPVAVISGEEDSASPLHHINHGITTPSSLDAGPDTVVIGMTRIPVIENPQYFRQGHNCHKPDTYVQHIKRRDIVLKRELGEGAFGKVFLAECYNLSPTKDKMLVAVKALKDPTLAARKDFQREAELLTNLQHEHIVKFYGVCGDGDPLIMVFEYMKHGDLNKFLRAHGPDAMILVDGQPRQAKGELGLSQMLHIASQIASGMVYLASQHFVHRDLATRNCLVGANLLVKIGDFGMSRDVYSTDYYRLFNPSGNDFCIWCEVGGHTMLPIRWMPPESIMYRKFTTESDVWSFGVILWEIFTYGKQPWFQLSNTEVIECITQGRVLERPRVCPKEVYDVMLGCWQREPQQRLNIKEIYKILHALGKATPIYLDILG

remaining binding at 1 µM (CSF1R): 45% | remaining binding at 1 µM (TRKC): 9.5% | remaining binding at 1 µM (TRKA): 12% | remaining binding at 1 µM (PIK3CA(E542K)): 89% | remaining binding at 1 µM (YANK1): 28% | remaining binding at 1 µM (FLT3(K663Q)): 26% | pIC50 (PERK; [1]): 8.66
SMILES: Cc1cc(NC(=O)[C@H](O)c2cccc(F)c2)ccc1-c1cn(C)c2ncnc(N)c12 [Compound 11, (R)-N-(4-(4-amino-7-methyl-7H-pyrrolo[2,3-d]pyrimidin-5-yl)-3-methylphenyl)-2-(3-fluorophenyl)-2-hydroxy acetamide]

SMILES: Cc1nc(N)c2c(-c3ccc(NC(=O)[C@H](O)c4cccc(F)c4)cc3C)cn(C)c2n1 [Compound 24]
remaining binding at 1 µM (CSF1R): 94% | remaining binding at 1 µM (TRKC): 79% | remaining binding at 1 µM (TRKA): 67% | remaining binding at 1 µM (PIK3CA(E542K)): 0.7% | remaining binding at 1 µM (YANK1): 94% | remaining binding at 1 µM (FLT3(K663Q)): 83% | pIC50 (PERK; [1]): 7.70

SMILES: Cc1nc(N)c2c(-c3ccc(NC(=O)[C@H](O)c4cccc(C(F)(F)F)c4)cc3C)cn(C)c2n1 [Compound 26]
remaining binding at 0.1 µM (CSF1R; 100 nM): 99% | remaining binding at 1 µM (CSF1R): 15% | remaining binding at 0.1 µM (TRKC; 100 nM): 100% | remaining binding at 1 µM (TRKC): 10% | remaining binding at 0.1 µM (TRKA; 100 nM): 29% | remaining binding at 1 µM (TRKA): 3.4% | remaining binding at 0.1 µM (PIK3CA(E542K); 100 nM): 100% | remaining binding at 1 µM (PIK3CA(E542K)): 91% | remaining binding at 0.1 µM (YANK1; 100 nM): 96% | remaining binding at 1 µM (YANK1): 67% | remaining binding at 0.1 µM (FLT3(K663Q); 100 nM): 51% | remaining binding at 1 µM (FLT3(K663Q)): 20% | pIC50 (PERK; [1]): 8.55

pIC50 (PERK; [1]): 8.74
SMILES: Cc1nc(N)c2c(-c3ccc(NC(=O)[C@H](O)c4cccc(Cl)c4)cc3C)cn(C)c2n1 [Compound 28]

pIC50 (PERK; [1]): 8.72
SMILES: Cc1nc(N)c2c(-c3ccc(NC(=O)[C@H](O)c4cc(F)cc(F)c4)cc3C)cn(C)c2n1 [Compound 38]

pIC50 (PERK; [1]): 8.59
SMILES: Cc1nc(N)c2c(-c3ccc(NC(=O)[C@H](O)c4cc(F)cc(C(F)(F)F)c4)cc3C)cn(C)c2n1 [Compound 39]

pIC50 (PERK; [1]): 8.85
SMILES: Cc1cc(F)cc([C@@H](O)C(=O)Nc2ccc(-c3cn(C)c4nc(C)nc(N)c34)c(C)c2)c1 [Compound 41]

pIC50 (PERK; bound stated, read-out: biochemical potency): > 8.30 | pIC50 (PERK; [1]): 9.00
SMILES: Cc1nc(N)c2c(-c3ccc(NC(=O)[C@H](O)c4cccc(Cl)c4)cc3F)cn(C)c2n1 [Compound 48]

pIC50 (PERK; [1]): 8.72
SMILES: Cc1nc(N)c2c(-c3ccc(NC(=O)[C@H](O)c4cccc(F)c4)c(F)c3C)cn(C)c2n1 [Compound 65]

pIC50 (PERK; [1]): 7.96
SMILES: Cc1nc(N)c2c(-c3cc(F)c(NC(=O)[C@H](O)c4cccc(F)c4)cc3C)cn(C)c2n1 [Compound 66]

SMILES: Cc1nc(N)c2c(-c3ccc(NC(=O)[C@H](O)c4cccc(F)c4)c(F)c3F)cn(C)c2n1 [Compound 70, (R)-N-(4-(4-amino-2,7-dimethyl-7H-pyrrolo[2,3-d]pyrimidin-5-yl)-2,3-difluorophenyl)-2-(3-fluorophenyl)-2-hydroxyacetamide]
pIC50 (PERK; [1]): 8.82
